How the values were obtained:
[1] = test system: Mouse 3T3-L1 preadipocytes; test: 3T3-L1 adipocyte differentiation assay; type: cell-based; conditions: 0.1 μM compared to Compound 1 at equal concentration; pre-adipocytes to adipocytes
Protocol: Mouse 3T3-L1 cells were grown in 96-well tissue culture plates containing growing medium (DME containing 10% calf serum (CS) plus glutamine-pen-strep) at a density of 3,000 cells/well. Two days after reaching confluence, cells are treated with the different compounds in DM (Day 0). Compound 1 is included in all the experiments, and its ability to differentiate 3T3-L1 cells at 0.1 μM is taken as reference for 100% differentiation. After 7 days the lipid content of the cells was determined.
Prior to testing compounds in vivo, they can be run through the in vitro adipocyte differentiation assay based on the protocol of Zhang, et al. (1996) Negative Regulation of Peroxisome Proliferator—Activated Receptor—γGene Expression Contributes to the Antiadipogenic effects of Tumor Necrosis Factor—α. Mol. Endo. 10:1457-1456, incorporated herein by reference. In short, mouse 3T3-L1 preadipocytes are grown in culture medium containing 10% calf serum supplemented with antibiotics. Two days after reaching confluence, cells are treated with the selected compound at different concentrations dissolved in medium containing 10% fetal calf serum supplemented with antibiotics and kept at 10% CO2. The test compounds are replaced every 2-3 days. Differentiation is assessed after 7 days of treatment by the lipid content in the cells, using the Triglyceride (INFINITY) reagent (Sigma Chemical, St. Louis, Mo.).
The ability of a compound to induce preadipocytes to differentiate into adipocytes is an indicator of its antidiabetic activity. This allows for screening many compounds in a simple in vitro assay, thus avoiding the task of testing all compounds in vivo. The adipocyte differentiation assay is based on the protocol of Zhang, et al. (1996) Negative Regulation of Peroxisome Proliferator-Activated Receptor-γ Gene Expression Contributes to the Antiadipogenic effects of Tumor Necrosis Factor—α. Mol. Endo. 10:1457-1456, incorporated herein by reference at least for material related to adipocyte differentiation assays. Mouse 3T3-L1 preadipocytes are grown in culture medium containing 10% calf serum supplemented with antibiotics. Two days after reaching confluence, cells are treated with the selected compound at different concentrations dissolved in medium containing 10% fetal calf serum supplemented with antibiotics and kept at 10% CO2. The test compounds are replaced every 2-3 days. Differentiation is assessed after 7 days of treatment by the lipid content in the cells, using the Triglyceride (INFINITY) reagent (Sigma Chemical, St. Louis, Mo.) (see FIG. 15).

[2] = test system: KKA^y mice; test: Antidiabetic activity in type 2 diabetic KKA^y mice; type: in vivo, mouse; conditions: for Efficacious in KKAy Mice: efficacious = lowers glucose without increasing triglycerides
Protocol: Prior to commencing treatment, all of the animals are bled from the tail vein and serum levels of glucose and triglyceride are measured in duplicate. The animals are then sorted into different treatment groups with equal average triglyceride levels. The animals are treated with a single daily oral dose of the test compound suspended in sesame oil (dose volume of 3 ml/kg).
In short, adult diabetic KKA^y mice are housed in a fixed 12—12-hr artificial light-dark cycle, and maintained on a standard rodent diet. Prior to commencing treatment, all of the animals are bled from the tail vein and serum levels of glucose and triglyceride are measured in duplicate. The animals are then sorted into different treatment groups with equal average triglyceride levels. The animals are treated with a single daily oral dose ranging from 3-30 mg/kg of the test compound suspended in sesame oil (dose volume of 3-5 ml/kg). Following one week of treatment the animals are bled from the tail vein and Serum glucose and triglycerides are measured in duplicate.
In this example, compound 1, which belongs to the novel subclass of RXR ligands is compared to a typical RXR ligand like compound 2 in the treatment of KKA^y mice.
For this study, adult diabetic KKA^y mice were housed in a fixed 12—12-hr artificial light-dark cycle, and maintained on a standard rodent diet. Prior to commencing treatment, all of the animals are bled from the tail vein and serum levels of glucose and triglyceride are measured in duplicate. The animals are then sorted into different treatment groups with equal average triglyceride levels. The animals are treated with a single daily oral dose of the test compound suspended in sesame oil (dose volume of 3 ml/kg).

[3] = test system: BALB/c mice; test: Effect on serum triglyceride levels in wild type BALB/c mice; type: in vivo, mouse; conditions: FIG. 13, p≦0.01
Protocol: The animals were treated with a single daily oral dose of the test compound suspended in sesame oil (dose volume of 5 ml/kg). […], Animas treated with 10 and 30 mg/kg of Compound 1, which are doses that are 30 and 100 times the efficacious does in diabetic db/db mice, respectively, caused no increase in serum triglyceride levels compared to vehicle treated control animals.
Test compounds are tested in wild type mice at 10-100 times the efficacious dose in diabetic mice. Typically, adult male BALB/c mice are housed in a fixed 12—12-hr artificial light-dark cycle, and maintained on a standard rodent diet. The animals are treated with a single daily oral dose of the test compound suspended in sesame oil (dose volume of 5 ml/kg) as also described in the examples. Approximately two weeks later the animals are bled from the tail vein, then necropsied following sacrifice by carbon dioxide asphyxiation. Several serum biochemical parameters are measured. Of special significance is the effect the selected compounds have on serum triglyceride levels compared to vehicle treated control animals.
For these studies, adult male BALB/c mice were housed in a fixed 12—12-hr artificial light-dark cycle, and maintained on a standard rodent diet. The animals were treated with a single daily oral dose of the test compound suspended in sesame oil (dose volume of 5 ml/kg).

[4] = test system: db/db mice; conditions: at the concentrations used in the KKA^y study; cited from earlier work
[5] = target: T1, RXR receptor (Homo sapiens, UniProt P19793); test: RXR activation (transient transfection reporter assay); type: cell-based; conditions: 1 μM compared to 9-cis-RA at equal concentration
T1 construct: expressed in transfected cells
T1 sequence (P19793 1-462): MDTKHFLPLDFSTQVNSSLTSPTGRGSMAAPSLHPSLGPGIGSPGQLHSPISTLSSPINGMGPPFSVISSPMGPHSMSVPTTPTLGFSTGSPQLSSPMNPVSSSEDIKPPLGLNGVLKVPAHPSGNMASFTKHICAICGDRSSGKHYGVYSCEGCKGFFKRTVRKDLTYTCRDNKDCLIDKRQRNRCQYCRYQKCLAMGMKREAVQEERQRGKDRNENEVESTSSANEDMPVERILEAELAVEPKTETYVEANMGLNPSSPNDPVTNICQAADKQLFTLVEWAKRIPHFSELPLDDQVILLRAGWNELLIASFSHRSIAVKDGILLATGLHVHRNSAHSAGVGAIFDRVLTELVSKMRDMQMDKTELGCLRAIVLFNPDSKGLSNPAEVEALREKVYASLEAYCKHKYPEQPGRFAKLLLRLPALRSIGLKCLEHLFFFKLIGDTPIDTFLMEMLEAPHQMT
Excerpt: RXR agonists activate the RXR receptor when interacting with RXR by binding to its binding pocket. This activation can be independent of whether the agonist, while interacting with portions of the ligand binding pocket, also interacts with side pocket 1. Activation, also often referred to as transcriptional activation, of RXR by agonists can be measured by a number of commonly used assays where the effect of the agonist ligand interacting with the RXR ligand binding pocket is to stimulate or induce transcription of a gene or genes in a cell. In one particular embodiment, transient transfection experiments (as described essentially by Zhang, et al. (1996) Negative Regulation of Peroxisome Proliferator—Activated Receptor—γ Gene Expression Contributes to the Antiadipogenic effects of Tumor Necrosis Factor—α. Mol. Endo. 10:1457-1456) can be used. In these cases, full length RXR proteins are expressed in living cells. Alternatively, hybrid proteins that contain a portion of another DNA binding domain and the ligand binding portion of the human RXRα receptor can be expressed in living cells instead of the full length RXR protein. Such hybrid proteins can bind to and activate specific reporter genes introduced into the same living cell and activation of such reporter genes is measured. The assays described here are very commonly used today by people skilled in the art of molecular biology experimenting. Transient transection assays are often used instead of ligand binding assays and can serve to measure or estimate an affinity of an RXR agonist ligand for RXR protein. The effective dose fifty (ED50, also called EC50) is the concentration of the ligand necessary to lead to one half maximal activation of the reporter gene in a living cell. Compounds that show 60% of the activity of the agonist 9-cis retenoic acid at 10^−6 M can be considered an RXR activator/agonist. Compounds which show 70% 80% 90% of the activity of the agonist 9-cis retinoic acid are also provided.
To confirm that the computer modeling/design of a compound does result in an RXR activator or RXR agonist, i.e. a compound that leads to RXR activation or transcriptional activation, commonly used assays can be applied, where the effect of the agonist or activator, interacting with the RXR ligand binding pocket is to stimulate or induce transcription of a gene or genes in a cell. In one particular embodiment, transient transfection experiments (as described essentially by Zhang, et al. (1996) Negative Regulation of Peroxisome Proliferator—Activated Receptor—γ Gene Expression Contributes to the Antiadipogenic effects of Tumor Necrosis Factor—α. Mol. Endo. 10:1457-1456) can be used. In these cases, full length RXR proteins are expressed in living cells. Alternatively, hybrid proteins that contain a portion of another DNA, binding domain and the ligand binding portion of the human RXRα receptor can be expressed in living cells instead of the fall length RXR protein. Such hybrid proteins can bind to and activate specific reporter genes introduced into the same living cell and activation of such reporter genes is measured (Brand, A. H. & Perrimon, 1993, Development, 118:401-415; Moya-Camarena, S. Y. et.al., 1999, J. Lipid Res., 40:1426:1433; Yi, Y. W. et al., 2000, Biochem. Biophys. Res. Commun., 272:193-198, each are herein incorporated by reference at least for material related to reporter assays). These assays not only measure binding of the ligand to its target, which could also be measured by an in vitro binding assay, but also measure the agonistic or activator activity of the compound. In such an assay, new compounds are compared to a standard activator like compound I or the natural agonist of RXR: 9-cis retinoic acid (see Example 7). For instance, all compounds that show at a given concentration at least 60% of the activity of 9-cis retinoic acid can be considered useful activators.

[6] = following two weeks of treatment

SMILES | Differentiation Activity [1] [%] | Efficacious in KKAy Mice [2] | RXR Activation [5] [%] | also measured
C=C(c1ccc(C(=O)O)cc1)c1cc2c(cc1C)C(C)(C)CCC2(C)C [Compound 2, reference compound] | >100 | No |  | serum glucose levels compared to vehicle treated controls ([2]; 5 and 15 mg/kg, single daily oral dose in sesame oil, FIG. 10): no difference; serum triglyceride levels compared to vehicle treated controls ([2]; 5 and 15 mg/kg, single daily oral dose, FIG. 11, statistically significant at 5 mg/kg): increase; glucose levels compared to vehicle treated controls [2, 6]: failed to decrease; triglyceride levels compared to vehicle treated controls [2, 6]: significantly increased; serum triglyceride levels compared to vehicle treated control animals ([3]; 50 and 100 mg/kg, daily oral, statistically significant at 100 mg/kg): increase; serum triglyceride levels compared to vehicle treated controls ([3]; similar excess over its effective glucose lowering dose in db/db mice): statistically significant, dose dependent increase; glucose levels in type 2 diabetic db/db mice [4]: lower; triglyceride levels in type 2 diabetic db/db mice [4]: lower
COc1ccc(C=C2SC(=O)NC2=O)cc1-c1cc2c(cc1C)C(C)(C)CCC2(C)C [Compound 6] | >100 | No | >100 | 
CON=C1CCC(C)(C)c2cc(C)c(-c3cc(C=C4SC(=O)NC4=O)ccc3OC(F)(F)F)cc21 [Compound 7] | 80 | Yes | 100 | glucose lowering activity ([2]; FIG. 16): glucose lowering activity; triglyceride lowering activity ([2]; FIG. 17): triglyceride lowering activity
Cc1cc2c(cc1C1(c3ccc(C(=O)O)cn3)CC1)C(C)(C)CCC2(C)C [Compound 5] | >100 | No |  | 
CO/N=C1\CCC(C)(C)c2cc(C)c(-c3cc(/C=C4\SC(=O)NC4=O)ccc3OC(F)(F)F)cc21 [Example 8, 3-[(1-Oxo-4,4,6-trimethyl-1,2,3,4-tetrahydronaphthalene-7-yl)-O-methyloxime]-4-trifluoromethoxy-benzylidene-2,4-thiazolidinedione] |  |  |  | melting point: 224 °C
Cc1cc2c(cc1-c1cc(C=C3SC(=O)NC3=O)ccc1O)C(C)(C)CCC2(C)C [Compound 4] | >100 | No | >100 | 
CC(C)Cc1cc(-c2cc(C=C3SC(=O)NC3=O)ccc2OC(F)(F)F)c2c(c1)C(C)(C)CO2 [Compound 9] | 30 | Yes | 125 | 
CO/N=C1\CCC(C)(C)c2cc(C)c(-c3cc(/C=C4\SC(=O)NC4=O)ccc3N(C)C)cc21 |  |  |  | melting point: 254 to 256 °C
CO/N=C1\CCC(C)(C)c2cc(C)c(-c3cc(/C=C4\SC(=O)NC4=O)ccc3Cl)cc21 |  |  |  | melting point: 252 to 254 °C
CCN1C(=O)CC(C)(C)c2cc(C)c(-c3cc(/C=C4\SC(=O)NC4=O)ccc3OC(F)(F)F)cc21 [Compound 8, 5-[3-(1-Ethyl-4,4,6-trimethyl-2-oxo-1,2,3,4-tetrahydro-quinolin-7-yl)-4-trifluoromethoxy-benzylidene]-thiazolidine-2,4-dione] | 95 | Yes | 90 | 
Cc1cc2c(cc1-c1cc(C=C3SC(=O)NC3=O)ccc1N(C)C)C(C)(C)CCC2(C)C [Compound 3] | 100 | Yes | 120 | 

From US7265139B2, “RXR activating molecules” (Incyte San Diego Inc., priority 2001, dated 2007)
